Test system: γ-Secretase
Assay: Cell-based ELISA assay of β-AP production by transfected H4 cells expressing β-APP (Swedish variant); reported as inhibition of γ-secretase
Details: β-AP in conditioned medium of transfected H4 (human neuroglioma) cells by ELISA, approximately 16 hours incubation, dose response
Source text: Production and detection of β-AP made by cells in culture. The use of transfected H4 (human neuroglioma) cells stably expressing constructs containing wild-type and mutant forms of β-APP have been used to identify inhibitors of β-AP production. The Swedish variant of β-APP produces 5-7 fold more β-AP than the wild type and is typically used due to its enhanced signal. […] The capture antibody is typically a mouse monoclonal (lgG1/kβ-APPa). The antibody recognizes the carboxyl terminal epitope of β-AP. The specificity of the capture antibody ensures measurement of β-AP without interference by other secreted β-APP fragments that share amino acid sequence (β-AP1-16) with β-AP. […] In the cell-based assay conditioned medium from H4 cells is tested by ELISA for the quantity of β-AP present. […]
A typical ELISA-based assay requires plating of the transfected cells at a density sufficient for the rapid detection of the secreted β-AP (experimentally predetermined for a particular stable cell population) in a 96-well format. […] Incubation of the cells with the test agent will continue for approximately 16 hours at which time equal aliquots of media from each sample well is removed and placed into a previously prepared ELISA plate for β-AP quantitation. The ELISA is carried out in a manner described by others (Haass, et al., 1992; Hawlow and Lane, 1988) and the β-AP signal quantitated. […]

[αS-(αR*, γR*, δR*)] N-(2,2-dimethylpropyl)-γ-hydroxy-α-(1-methylethyl)-δ-[(4-methylpentyl)amino]cyclohexanehexanamide hydrochloride. [Example 31]
Activity Rating: +++ (+++ ⇐ 10)

— patent publication EP0778266A1, “5-Amino-6-cyclohexyl-4-hydroxy-hexanamide derivatives as inhibitors of beta-amyloid protein production” (BRISTOL-MYERS SQUIBB COMPANY, priority 1995, dated 1997)
